What was measured:
[1] = tested on: NIH 3T3 cell transfectants; experiment: Colony formation in soft agar (anchorage-independent growth); assay type: cell-based, murine
Experimental: Clonal populations of NIH 3T3 cells stably transfected with vector control, soluble Jagged1 (sJ1), constitutively active Notch1 (caN1), constitutively active Notch 2 (caN2), dominant negative Notch 1 (dnN1), dominant negative Notch 2 (dnN2), an oncogenic mutant of FGF1 engineered with the FGF4 signal peptide sequence (hst-β (FGF4):FGF1), or constitutively active oncogenic Ras construct (caRas), were plated on 6 cm tissue culture dishes with 0.5% agar in an overlay containing DMEM (Gibco BRL) media, 10% bovine calf serum (BCS; Hyclone), and 0.33% agar at 1.5×10^3 cells/dish. As indicated, some dishes were also treated with 1 μM of the FGFR1-specific inhibitor, PD166866 (Panek et al., 1998, J. Pharmacol. Exp. Ther. 286: 569-577) and/or 10 ng/ml recombinant human FGF1 and 10 U/ml heparin (Sigma). Cells were fed with 0.5 ml of media with or without FGF1 and/or the FGFR1-specific inhibitor every 3 days as indicated. Twenty days after plating, colonies were stained with p-iodonitrotetrazolium violet (Sigma) for visualization. Quantitation of colony formation was achieved by counting all p-iodonitrotetrazolium violet-stained colonies consisting of more than 4 cells under a Zeiss Stemi SVII Apo dissecting microscope.
Anchorage-Dependent and -Independent Cell Growth Assays. Approximately 3×10^4 cells were plated on fibronectin (10 μg/cm^2)-coated in 12-well cell culture dishes (Falcon) in DMEM containing 10% BCS (v/v) (Hyclone). Three wells of the individual NIH 3T3 cell transfectants were harvested every third day and cell number was quantitated using a hemocytometer. Anchorage-independent cell growth was evaluated by plating in duplicate approximately 1.7×10^3 cells in DMEM containing 0.5% (w/v) agar (Sigma) 10% (v/v) BCS into 5 cm plastic dishes (Falcon) as previously described (Small et al., 2003, J. Biol. Chem. 278:16405-16413).

[2] = tested on: NIH 3T3 stable transfectants; experiment: FGF1-induced spheroid formation; assay type: cell-based, murine
Experimental: Clonal populations of NIH 3T3 stable transfectants were resuspended and grown in media containing 10% BCS, 10% BCS containing 1 μM PD166866, 10% BCS containing 10 ng/ml recombinant human FGF1 and 10 U/ml heparin or 10% BCS containing 10 ng/ml recombinant human FGF 1, 10 U/ml heparin and 1 μM PD 166866 as indicated in the figure legend. Approximately 2×10^5 cells were plated per well (6-well dish) and three days after plating, phase-contrast micrographs of the cells were taken.

[3] = tested on: CSL1-dependent transcription; experiment: Dual luciferase reporter assay of CSL1-dependent transcription (Example 2); assay type: cell-based, murine
Experimental: Insert-less vector control and sJ1 NIH 3T3 cell transfectants (approximately 3×10^4) were plated on fibronectin-coated (10 μg/cm^2) cell culture dishes and the cells were transiently transfected at approximately 50% confluency with 500 ng of a luciferase construct containing four tandem copies of the CBF1 response element (Small et al., 2001, J. Biol. Chem. 276:32022-32030).
Cotransfection with 100 ng of the TK Renilla (Promega) construct was used as an internal control for transfection efficiency using Fugene 6 (Roche), according to the manufacturer's instructions. Cells were treated with or without 10, […] hours after transfection, harvested 48 hours after the transfection and luciferase/renilla activity measured using the Dual Luciferase Reporter Assay System (Promega). Each experiment was performed in triplicate.

[4] = tested on: caN1/CSL-activated transcription; experiment: Transient transfection assay of CSL-regulated transcription (Example 1); assay type: cell-based, murine; conditions: exogenous FGF1 1-10 ng/ml; caN1 transfectants
Experimental: NIH 3T3 cells were plated onto fibronectin-coated (10 μg/cm2) 12-well tissue culture dishes and transiently transfected at approximately 80% confluency with 500 ng of a Luciferase construct activated by 4 tandem copies of the CSL (CBF1) response element (Hsieh et al. 1996, Mol. Cell. Biol. 16: 952-959), 100 ng of the TK Renilla (Promega) construct as an internal control for transfection efficiency, and 500 ng of either vector control, sJ1 or caN1 constructs using Fugene 6 (Roche) per manufacturer's instructions. For analysis of caN1 activity in the background of NIH 3T3 stable lines, vector control, caN1, sJ1 and hst-β(FGF4):FGF1 stable transfectants were plated onto fibronectin-coated (10 μg/cm2) 12-well tissue culture dishes and transiently transfected with 500 ng of the CSL-Luciferase construct, 100 ng of the TK Renilla (Promega) construct as an internal control for transfection efficiency, and 200 ng of caN1. […] The cells were harvested 48 hours after the media change and Luciferase/Renilla activity was measured using Promega's Dual-Luciferase Reporter Assay System. The efficiency of transcription was measured and normalized in relationship to the activity of pRL-TK Renilla and the activity is reported as the ratio of Luciferase/Renilla activity. […]

[5] = tested on: Jagged1; experiment: Jagged1 expression by immunoblot; assay type: cell-based, murine; conditions: 10 ng/ml FGF1 and 10 U/ml heparin in growth media
Experimental: Vector control, SJ1, CaN1, J1, Hstβ(FGF4):FGF1 and sJ1:caN1 stable NIH 3T3 cell transfectants were plated on tissue culture dishes in either normal growth media (DMEM (Gibco BRL) media, 10% bovine calf serum (BCS; Hyclone)) or normal growth media containing 10 ng/ml recombinant FGF1 and 10 U/mi heparin. Cells were harvested at confluency (based on status of vector control cells grown in normal growth media).
Because hst-β(FGF4):FGF1 stable transfectants and the sJ1 transfectants grown in FGF 1-containing media form spheroids, all cells were harvested by scraping in the presence of the growth media dn then the cells/growth media was collected into sterile 15 ml conical tubes. Cells were pelleted by centrifugation at 800×g for 5′ at 4° C. After centrifugation, the supernatant was removed and the cell pellets were washed 3× with 1×PBS. Cells were lysed in 500 μl in 20 mM tris, pH 7.5 containing 300 mM sucrose, 60 mM KCl, 15 mM NaCl, 0.5 mM EDTA, 0.5% (v/v) Triton X-100 1 mM Phenymethyl sulfonyl flouride, 0.1% SDS, 2 μg/ml aprotinin, […], 10 μg/ml leupeptin, and 1 mM sodium orthovanadate for 15 minutes on ice. Cell lysates were pelleted and the supernatant containing soluble proteins removed.
Samples were normalized to protein concentration using the BCA Protein Assay Kit (Pierce). […]

[6] = biological target: FGFR1 (mouse) (UniProt P16092); experiment: cell-based or functional assay
[7] = biological target: Notch receptor; experiment: cell-based or functional assay
[8] = tested on: full-length human Jagged1, in vitro translation product
[9] = tested on: in vitro translation product of the Delta1 transcript
[10] = biological target: full-length human Jagged1 on NIH 3T3 cell transfectants (human) (UniProt P78504); experiment: cell-based or functional assay
Sequence of full-length human Jagged1 on NIH 3T3 cell transfectants (human) (P78504 34-1218 A1171G limits assumed): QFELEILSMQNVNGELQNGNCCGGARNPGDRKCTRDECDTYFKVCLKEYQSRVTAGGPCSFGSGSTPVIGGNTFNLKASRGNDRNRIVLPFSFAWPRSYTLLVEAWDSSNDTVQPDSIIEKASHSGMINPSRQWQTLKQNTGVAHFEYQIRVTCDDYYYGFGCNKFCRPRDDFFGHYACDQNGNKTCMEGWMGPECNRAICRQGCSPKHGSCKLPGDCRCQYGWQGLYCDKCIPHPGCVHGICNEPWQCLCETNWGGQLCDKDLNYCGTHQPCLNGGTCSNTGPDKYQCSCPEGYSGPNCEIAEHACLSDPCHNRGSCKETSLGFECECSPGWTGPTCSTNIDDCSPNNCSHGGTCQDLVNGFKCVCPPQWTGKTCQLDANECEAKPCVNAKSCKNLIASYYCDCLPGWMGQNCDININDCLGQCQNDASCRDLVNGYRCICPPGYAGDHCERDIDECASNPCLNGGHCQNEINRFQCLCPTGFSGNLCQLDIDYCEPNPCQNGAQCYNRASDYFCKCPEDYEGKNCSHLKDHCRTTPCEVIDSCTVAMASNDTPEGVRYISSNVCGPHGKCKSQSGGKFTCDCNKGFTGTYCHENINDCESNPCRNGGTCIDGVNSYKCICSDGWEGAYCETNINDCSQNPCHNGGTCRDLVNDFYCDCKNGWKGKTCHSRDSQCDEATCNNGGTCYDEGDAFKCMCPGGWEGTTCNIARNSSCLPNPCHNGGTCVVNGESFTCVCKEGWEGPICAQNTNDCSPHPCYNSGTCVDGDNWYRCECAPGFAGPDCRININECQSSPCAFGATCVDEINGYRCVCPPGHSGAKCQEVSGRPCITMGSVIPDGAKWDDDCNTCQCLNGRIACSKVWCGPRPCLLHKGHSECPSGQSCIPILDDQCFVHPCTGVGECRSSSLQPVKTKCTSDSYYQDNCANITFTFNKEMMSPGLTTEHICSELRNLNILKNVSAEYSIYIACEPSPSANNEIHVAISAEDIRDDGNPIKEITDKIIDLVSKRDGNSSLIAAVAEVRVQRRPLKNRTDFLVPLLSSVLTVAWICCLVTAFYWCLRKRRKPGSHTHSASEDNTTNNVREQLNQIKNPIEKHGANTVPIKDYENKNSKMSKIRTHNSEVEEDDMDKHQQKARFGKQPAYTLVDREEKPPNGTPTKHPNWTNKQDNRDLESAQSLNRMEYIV

Sequence of FGFR1 (mouse) (P16092 22-822): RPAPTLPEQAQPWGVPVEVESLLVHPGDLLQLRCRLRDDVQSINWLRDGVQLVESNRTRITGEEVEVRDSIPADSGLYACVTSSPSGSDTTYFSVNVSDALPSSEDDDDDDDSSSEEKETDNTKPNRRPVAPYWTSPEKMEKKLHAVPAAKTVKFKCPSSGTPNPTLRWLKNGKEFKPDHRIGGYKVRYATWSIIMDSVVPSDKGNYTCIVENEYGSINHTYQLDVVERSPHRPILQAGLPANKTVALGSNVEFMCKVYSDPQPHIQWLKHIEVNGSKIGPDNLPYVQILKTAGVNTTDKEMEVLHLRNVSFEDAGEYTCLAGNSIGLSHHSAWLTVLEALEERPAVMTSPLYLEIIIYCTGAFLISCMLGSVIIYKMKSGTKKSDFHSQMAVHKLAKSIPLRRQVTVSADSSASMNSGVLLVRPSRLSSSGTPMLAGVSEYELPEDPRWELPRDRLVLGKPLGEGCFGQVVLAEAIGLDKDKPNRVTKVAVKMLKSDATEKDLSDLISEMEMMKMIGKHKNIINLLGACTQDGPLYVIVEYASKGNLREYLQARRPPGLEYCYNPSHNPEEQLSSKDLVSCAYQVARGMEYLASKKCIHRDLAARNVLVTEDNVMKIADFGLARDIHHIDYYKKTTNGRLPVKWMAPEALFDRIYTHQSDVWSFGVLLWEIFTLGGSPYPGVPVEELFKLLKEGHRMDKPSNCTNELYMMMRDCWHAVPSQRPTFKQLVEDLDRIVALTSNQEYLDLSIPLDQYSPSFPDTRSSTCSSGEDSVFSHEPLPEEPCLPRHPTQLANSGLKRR

COc1cc(OC)cc(-c2cc3cnc(N)nc3nc2NC(=O)NC(C)(C)C)c1 [PD166866]
effect on anchorage-independent growth of sDl1 NIH 3T3 cell transfectants [1]: completely inhibited | effect on colony formation in caRas cells ([1]; 1 μM): had no effect on colony formation in the caRas cells | effect on colony growth of sJ1 and dnN1 in the absence of FGF1 ([1]; 1 μM): inhibited small colony growth | effect on FGF1-mediated colony formation ([1]; 1 μM, sJ1, dnN1 and hst-β(FGF4):FGF1 transfectants): substantially reduced FGF1-mediated colony formation | effect on FGF1-induced spheroid formation ([2]; 1 μM PD166866, sJ1, dnN1 and hst-β(FGF4):FGF1 transfectants): completely abolished FGF1-induced spheroid formation

FGF1: recombinant human FGF1 (acidic FGF)
effect on colonies formed by sJ1 and dnN1 transfectants ([1]; 10 ng/ml FGF1 in growth media): greatly exaggerated the size of the colonies | CSL1-dependent transcription, level relative to control ([3]; thrombin on full-length Jagged1 NIH 3T3 transfectants, sJ1 expression, 10 ng/ml exogenous FGF1): approximately 25 % of the control level | effect on caN1/CSL transcription [4]: repressed caN1/CSL transcription in a dose-dependent fashion | spheroid formation in Notch-repressed (sJ1, dnN1) NIH 3T3 cells ([2]; 10 ng/ml recombinant FGF1 and 10 U/ml heparin): formed multicellular, spheroid-like structures | effect on Jagged1 expression [5]: increased Jagged1 expression in all stable lines examined

heparin [reference compound]
effect of heparin on thrombin-dependent repression of CSL1-dependent transcription ([3]; heparin 5 units/ml with thrombin 10 μg/ml, full-length Jagged1 NIH 3T3 transfectants): able to potentiate the thrombin-dependent repression of CSL1-dependent transcription | effect of heparin on CSL1-dependent transcription ([3]; heparin by itself or with 10 μM TRAP): ineffective in altering CSL1-dependent transcription

recombinant FGF1 (from UniProt P05230 16-155) (ligand)
DNA synthesis ((3H)-thymidine-labelled nuclei) in Swiss 3T3 cells expressing dnFGFR1 [6]: 70 % reduction

soluble Jagged1 (sJ1) (from UniProt P78504 34-1067) (ligand)
CSL1-dependent transcription (dual luciferase reporter) (% of the control level) [7]: 25

α-thrombin
proteolytic cleavage of in vitro translated (35S)-labelled Jagged1, SDS-PAGE and autoradiography [8]: cleavage of the full-length Jagged1 protein into 39 kDa and 95 kDa fragments | proteolytic cleavage of the in vitro translation product [9]: thrombin was unable to proteolytically modify the in vitro translation product of the Delta1 transcript

α-thrombin (enzyme)
CSL1-dependent transcription (dual luciferase reporter) in full-length Jagged1 NIH 3T3 cell transfectants (% of the control level) [10]: 75
